Our source for the IC50 values is BindingDB's records for doi:10.1021/acschembio.6b00827 (Universitätsklinikum Frankfurt, 2017).

The target of assay [1] is T1, Protein kinase C zeta type (Homo sapiens, UniProt Q05513).
T1 sequence (Q05513 whole entry): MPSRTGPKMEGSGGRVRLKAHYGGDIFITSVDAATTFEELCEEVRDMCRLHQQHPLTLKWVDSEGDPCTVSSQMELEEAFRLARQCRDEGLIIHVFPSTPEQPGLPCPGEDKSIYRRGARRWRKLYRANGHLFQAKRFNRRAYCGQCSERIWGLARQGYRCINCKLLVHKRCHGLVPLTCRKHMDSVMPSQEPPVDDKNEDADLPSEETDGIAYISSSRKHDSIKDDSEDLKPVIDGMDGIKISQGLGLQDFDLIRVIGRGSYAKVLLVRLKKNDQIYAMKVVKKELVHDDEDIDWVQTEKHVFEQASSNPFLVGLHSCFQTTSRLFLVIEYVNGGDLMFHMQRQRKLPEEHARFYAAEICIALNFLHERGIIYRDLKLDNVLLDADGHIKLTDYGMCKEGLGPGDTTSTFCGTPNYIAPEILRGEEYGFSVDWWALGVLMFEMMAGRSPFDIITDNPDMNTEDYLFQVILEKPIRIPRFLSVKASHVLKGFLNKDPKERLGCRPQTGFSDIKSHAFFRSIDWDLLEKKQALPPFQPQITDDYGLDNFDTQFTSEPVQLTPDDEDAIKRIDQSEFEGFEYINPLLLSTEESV
Put plainly: PKC AlphaScreen Assay. As to conditions: pH 7.4. The protocol: (§1) Interaction assays were performed using the Alpha-Screen (amplified luminescent proximity homogeneous assay) technology, as described previously [Lopez-Garcia et al., Chem. Biol., 18:1463-1473; Zhang et al., Chem. Biol., 21:754-765]. The bead-based assay allows the detection of biomolecular interactions and the effect of small compounds. Briefly, the Alpha-Screen assay was performed in a finalvolume of 25 μL in white 384-well microtiter plates (Greiner Bio-One) with His-PKCι-CD (40 nM) and biotin-pseudosubstrate (80 nM) or His-PKCι-CD (15 nM) and biotin-ROCKtide (100 nM) in a buffer containing 50 mM Tris-HCl (pH 7.4), 100 mM NaCl, 0.01% (v/v) Tween 20, 0.1% (w/v) BSA, 2 mM dithiothreitol (for the PKCι-Rocktide interaction) or 5 mM dithiothreitol (for the PKCι-pseudosubstrate interaction), and the corresponding concentration of the compound. Five microliters of beads at a concentration of 20 μg/mL was added to the mixture (nickel chelate-coated acceptor beads and streptavidin-coated donor beads), and after incubation for 90 min, Alpha-Screen counts were obtained in an EnVision Multiplate reader.

The target in assay [2] is T2, Protein kinase C iota type (Homo sapiens, UniProt P41743).
T2 sequence (P41743 whole entry): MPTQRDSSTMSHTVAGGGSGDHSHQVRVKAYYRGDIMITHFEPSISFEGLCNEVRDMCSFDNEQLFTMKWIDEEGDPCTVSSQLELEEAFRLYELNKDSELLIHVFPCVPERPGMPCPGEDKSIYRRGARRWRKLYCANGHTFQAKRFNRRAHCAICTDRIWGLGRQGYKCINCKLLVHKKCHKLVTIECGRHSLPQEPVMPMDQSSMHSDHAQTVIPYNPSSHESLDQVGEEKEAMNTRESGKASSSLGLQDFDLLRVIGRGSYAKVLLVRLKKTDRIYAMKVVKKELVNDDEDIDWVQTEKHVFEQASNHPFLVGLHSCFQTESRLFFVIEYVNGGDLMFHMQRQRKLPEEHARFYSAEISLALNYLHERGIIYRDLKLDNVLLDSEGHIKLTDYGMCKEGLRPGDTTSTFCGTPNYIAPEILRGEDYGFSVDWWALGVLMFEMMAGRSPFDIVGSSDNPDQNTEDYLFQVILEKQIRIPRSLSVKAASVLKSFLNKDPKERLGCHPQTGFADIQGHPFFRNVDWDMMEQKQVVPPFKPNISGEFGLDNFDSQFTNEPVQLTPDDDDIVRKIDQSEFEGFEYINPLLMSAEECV
Kind of assay: PKC AlphaScreen Assay. The following applies: pH 7.4. The protocol: as §1

With `CCOC(=O)C1=C(O)C(=O)N(c2nc3ccc(Cl)cc3[nH]2)C1c1ccccc1` (configuration not stated) [PS312], in assay [1], the IC50 amounted to 44.1 µM.
In the case of `CCOC(=O)C1=C(O)C(=O)N(c2nc3ccc(C)cc3s2)C1c1ccc(-c2ccc(Cl)cc2)o1` (configuration not stated) [PS432], the IC50 is 16.9 µM in assay [2] and 18.5 µM in assay [1].
With `CCOC(=O)C1=C(O)C(=O)N(c2nc3ccc(Cl)cc3[nH]2)C1c1ccc(Cl)cc1` (configuration not stated) [PS212], the IC50 was determined as 43.2 µM in assay [2] and 20.5 µM in assay [1].
Turning to `CCOC(=O)C1=C(O)C(=O)N(c2nc3ccc(Cl)cc3s2)C1c1cccs1` (configuration not stated) [PS267], the IC50 in assay [2] is 36.4 µM; in assay [1], 17.8 µM.
